The experiment addresses T1, CDK3/cyclin E1 (Homo sapiens, UniProt Q00526).
T1 construct: purchased Thermo Fisher Scientific (Life Technologies) SelectScreen
Briefly: SelectScreen LanthaScreen. The class given is binding. The settings on record: 1 µM. An outline of the steps:
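SelectScreen broad panel; activity (Z'LYTE, Adapta) plus binding formats. ATP: Km app for CSF1R Z'LYTE; 10 for CAMK1 Adapta. Readout = % per kinase.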
On the technique in general: TR-FRET usually uses a lanthanide donor and a delayed reading to cut background.

T1 sequence (Q00526 whole entry): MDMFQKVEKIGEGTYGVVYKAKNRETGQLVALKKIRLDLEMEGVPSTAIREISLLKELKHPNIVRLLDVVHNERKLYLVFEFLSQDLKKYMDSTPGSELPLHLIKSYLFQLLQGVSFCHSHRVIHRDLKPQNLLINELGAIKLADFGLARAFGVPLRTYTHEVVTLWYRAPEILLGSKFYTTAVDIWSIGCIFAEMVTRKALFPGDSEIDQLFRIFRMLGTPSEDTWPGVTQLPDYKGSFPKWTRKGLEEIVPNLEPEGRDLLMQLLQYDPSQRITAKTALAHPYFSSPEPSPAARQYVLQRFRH
T1 sequence (P24864 whole entry partner): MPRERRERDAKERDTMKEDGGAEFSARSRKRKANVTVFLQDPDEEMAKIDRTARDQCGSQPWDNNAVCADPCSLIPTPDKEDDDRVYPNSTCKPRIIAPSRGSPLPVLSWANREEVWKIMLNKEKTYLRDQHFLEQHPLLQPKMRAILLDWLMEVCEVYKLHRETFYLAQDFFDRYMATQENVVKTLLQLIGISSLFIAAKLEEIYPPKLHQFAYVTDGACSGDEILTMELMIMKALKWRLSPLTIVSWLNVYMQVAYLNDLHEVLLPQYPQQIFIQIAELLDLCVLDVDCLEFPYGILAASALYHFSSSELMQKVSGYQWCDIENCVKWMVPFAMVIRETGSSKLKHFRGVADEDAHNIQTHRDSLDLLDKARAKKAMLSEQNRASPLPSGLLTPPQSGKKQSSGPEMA

Turning to `CN(C(=O)CN1CCOCC1)c1ccc2sc3c(-c4cccc5c(=O)cc(N6CC7CCC(C6)O7)oc45)cccc3c2c1` [NU5455], the “% displacement” value is 1.9%.
